Patent US20210087172A1, “FACTOR XIIa INHIBITORS” (UNIVESITY OF LEEDS, priority 2018, published 2021)

Assays:
Type in all cases: biochemical
[1] = target: T1, FXIIa alpha (Human) (Homo sapiens, UniProt P00748); test: Determination of Factor XIIa inhibition, chromogenic substrate S-2302; conditions: 10 nM FXIIa, 450 μM S-2302, 37° C., pH 7.4; Ki converted from IC50
T1 construct: FXIIa alpha
T1 sequence (P00748 373-615 limits assumed): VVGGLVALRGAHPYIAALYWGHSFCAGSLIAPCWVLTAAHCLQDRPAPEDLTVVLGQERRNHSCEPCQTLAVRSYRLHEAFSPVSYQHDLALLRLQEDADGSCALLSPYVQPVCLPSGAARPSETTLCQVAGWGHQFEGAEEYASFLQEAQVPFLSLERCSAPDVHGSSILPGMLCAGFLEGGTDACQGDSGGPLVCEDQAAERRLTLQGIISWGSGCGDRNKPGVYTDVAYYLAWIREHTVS
T1 sequence (P00748 20-372 partner limits assumed): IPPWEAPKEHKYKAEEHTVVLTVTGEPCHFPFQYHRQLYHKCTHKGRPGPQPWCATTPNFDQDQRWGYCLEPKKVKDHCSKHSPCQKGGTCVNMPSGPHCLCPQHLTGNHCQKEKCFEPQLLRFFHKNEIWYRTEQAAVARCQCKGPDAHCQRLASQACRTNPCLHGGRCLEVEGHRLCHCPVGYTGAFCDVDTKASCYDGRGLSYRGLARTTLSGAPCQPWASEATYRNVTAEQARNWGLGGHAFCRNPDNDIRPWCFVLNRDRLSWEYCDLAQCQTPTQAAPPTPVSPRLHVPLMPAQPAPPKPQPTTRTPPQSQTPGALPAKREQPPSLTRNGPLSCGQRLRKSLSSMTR
Procedure: (§1) The activities of the compounds of the invention have been determined in vitro using the following assays protocols for the screening of activity of FXIa and other proteases. Each of these assays were performed in a purified system employing the use of chromogenic assays in microplate plate wells. Chromogenic peptide substrates mimicking natural protein substrates are attached via an amide bond to a chromogenic group. Paranitroaniline (pNA) is released from the peptide following catalyses by the proteolytic enzyme; the absorbance increases and can be monitored at 405 nm.
(§2) All compounds were dissolved in 100% (v/v) DMSO to a stock concentration of 10 mM, the highest concentration of compound used in each assay is 500 μM. The final concentrations of DMSO were 5% (v/v) in 50 mM Tris 137 mM NaCl pH 7.4. Where no test compound was added a final concentration of 5% DMSO was employed.
[…] activity was measured using a chromogenic substrate S-2302 (Chromogenix). Various concentrations of compound were incubated with 10 nM of FXIIa and incubated at 37° C. for 10 minutes in 50 mM Tris, 137 mM NaCl, pH 7.4, prior to the addition of a final concentration of 450 μM S-2302 chromogenic substrate. Kinetic readings at 405 nm were monitored every 12 secs for a total duration of 3 hours at 37° C. Gradients of initial rates were determined and employed to calculate IC50 values. Values of IC50 were converted to Ki values based on the formula:
(§3) Ki=IC50/(1+[Substrate]/Km)
The activity of the compounds of the invention has been categorised based on the Ki values, the categories being “*”, “**” and “***”. […] The category refers to compounds with a Ki value of 0.2 μM to 2 μM.

[2] = target: T2, Thrombin (human) (Homo sapiens, UniProt P00734); test: Determination of selectivity: thrombin chromogenic assay (GPR substrate); conditions: fold selectivity for FXIIa over thrombin; thrombin 5 nM, GPR 250 μM
T2 construct: FXa (5 nM) and thrombin (5 nM)
Procedure: as §1, §2
(§4) To determine selectivity of test compounds, these test compounds were assayed for inhibitory activity against other serine proteases including FXa and thrombin. Essentially compounds at increasing concentrations were incubated with each enzyme: FXa (5 nM) and thrombin (5 nM), for 10 mins at 37° C. followed the appropriate chromogenic substrate, S2765 (350 μM), and GPR (250 μM) respectively in 50 mM Tris, 137 mM NaCl, pH 7.4. Chromogenic substrates S2765 was from Chromogenix, and GPR from Bachem. Kinetic readings at 405 nm were monitored every 12 secs for a total duration of 3 hours at 37° C. Gradients of initial rates were determined and employed to calculate IC50 values. Values of IC50 were converted to Ki values based on the formula:
as §3
(§5) Where [Substrate] denotes the concentration of substrate used in the assay and Km is the determined value of each enzyme with its own substrate.
The fold selectivity for FXIIa over thrombin for the compounds of the invention has been categorised based on the fold selectivity values, the categories being “+”, “++” and “+++”. The category “+” refers to fold selectivity values less than 10. The category “++” refers to a fold selectivity value of 10 to 100. The category “+++” refers to fold selectivity values greater than 100.

[3] = target: FXa (human) (Homo sapiens, UniProt P00742); test: Determination of selectivity: FXa chromogenic assay (S2765 substrate); conditions: fold selectivity for FXIIa over FXa; FXa 5 nM, S2765 350 μM
Procedure: as §1, §2, §4, §3, §5
The fold selectivity for FXIIa over FXa for the compounds of the invention has been categorised based on the fold selectivity values, the categories being “o”, “oo” and “ooo”. The category “o” refers to fold selectivity values less than 10. The category “oo” refers to a fold selectivity value of 10 to 100. The category “ooo” refers to fold selectivity values greater than 100.

Chain of FXa (human) (P00742 235-488 limits assumed): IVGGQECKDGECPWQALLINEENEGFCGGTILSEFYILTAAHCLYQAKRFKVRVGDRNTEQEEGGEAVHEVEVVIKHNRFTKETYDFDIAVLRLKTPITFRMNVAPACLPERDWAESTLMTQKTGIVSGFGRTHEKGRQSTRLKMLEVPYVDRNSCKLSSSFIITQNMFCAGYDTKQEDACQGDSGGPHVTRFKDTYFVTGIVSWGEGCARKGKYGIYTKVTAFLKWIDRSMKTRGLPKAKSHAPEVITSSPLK
Chain of FXa (human) (P00742 41-179 partner limits assumed): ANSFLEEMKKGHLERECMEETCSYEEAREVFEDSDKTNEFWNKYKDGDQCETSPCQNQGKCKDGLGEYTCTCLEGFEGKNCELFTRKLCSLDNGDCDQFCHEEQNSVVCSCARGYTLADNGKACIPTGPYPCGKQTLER

Row | Ki [1] [nM] | SMILES | Thrombin (human)/FXIIa alpha (human) fold selectivity [2] | FXa (human)/FXIIa alpha (human) fold selectivity [3]
1 | > 2000 | Cn1nnc2cc(CNC(=O)[C@@H]3CC(Oc4ncccn4)CCN3C(=O)[C@H](N)CCC(=O)N3CCCC3)ccc21 (stereo partly shown) [Compound M05252] | ++ (a fold selectivity value of 10 to 100) | oo (a fold selectivity value of 10 to 100)
2 | > 2000 | CN(C)[C@H](CCC(=O)N1CCCC1)C(=O)N1CCN(C(=O)OCc2ccccc2)C[C@H]1C(=O)NCc1ccc2[nH]cnc2c1 [Compound M05217] | ++ (a fold selectivity value of 10 to 100) | oo (a fold selectivity value of 10 to 100)
3 | > 2000 | Cn1ccnc1COC(=O)N1CCN(C(=O)C(N)CCc2ccccc2)C(C(=O)NCc2ccc3c(c2)nnn3C)C1 (stereo not shown) [Compound M00883] |  | 
4 | > 2000 | CC(=O)N1CCN(C(=O)C(N)CCc2ccccc2)C(C(=O)NCc2ccc(CN)cc2)C1 (stereo not shown) [Compound M00850] |  | 
5 | > 2000 | N[C@H](CCC(=O)N1CCCC1)C(=O)N1CCN(C(=O)OCc2ccccc2)C[C@H]1C(=O)NCc1ccc2[nH]cnc2c1 [Compound M05213] | ++ (a fold selectivity value of 10 to 100) | oo (a fold selectivity value of 10 to 100)
6 | > 2000 | Cn1nnc2cc(CNC(=O)[C@@H]3C[C@H](c4ccccc4)CCN3C(=O)[C@H](N)CCC(=O)N3CCCC3)ccc21 [Compound M05385] | ++ (a fold selectivity value of 10 to 100) | oo (a fold selectivity value of 10 to 100)
7 | 200 to 2000 | N[C@H](CCC(=O)N1CCCC1)C(=O)N1CCN(C(=O)OCc2ccccc2)C[C@H]1C(=O)NCc1cc2ccncc2[nH]1 [Compound M00951] | ++ (a fold selectivity value of 10 to 100) | oo (a fold selectivity value of 10 to 100)
8 | 200 to 2000 | N=C(N)c1ccc(CNC(=O)C2CCCCN2C(=O)C(CCc2ccccc2)NS(=O)(=O)Cc2ccccc2)cc1 (stereo not shown) [Compound M00556] | + (fold selectivity values less than 10) | o (fold selectivity values less than 10)
9 | 200 to 2000 | Nc1cc(CNC(=O)[C@@H]2CN(C(=O)OCc3ccccc3)CCN2C(=O)[C@H](N)CCC(=O)N2CCCC2)ccn1 [Compound M05209] | +++ (fold selectivity values greater than 100) | oo (a fold selectivity value of 10 to 100)
10 | > 2000 | Cn1nnc2cc(CNC(=O)C3CN(C(=O)OCc4ccccc4)CCN3C(=O)C(N)C3Cc4ccccc4C3)ccc21 (stereo not shown) [Compound M05273] |  | 
11 | > 2000 | CN(C)C(=O)N1CCN(C(=O)C(N)CCc2ccccc2)C(C(=O)NCc2ccc(CN)cc2)C1 (stereo not shown) [Compound M00848] |  | 
12 | > 2000 | CN(C)[C@H](CCc1ccccc1)C(=O)N1CCN(C(=O)OCc2ccccc2)C[C@H]1C(=O)NCc1ccnc(N)c1 [Compound M00833] | ++ (a fold selectivity value of 10 to 100) | oo (a fold selectivity value of 10 to 100)
13 | > 2000 | NCc1ccc(CNC(=O)C2CN(C(=O)CCc3ccccc3)CCN2C(=O)C(N)CCc2ccccc2)cc1 (stereo not shown) [Compound M00840] |  | 
14 | > 2000 | NCc1ccc(CNC(=O)C2CN(C(=O)NCc3ccccc3)CCN2C(=O)C(N)CCc2ccccc2)cc1 (stereo not shown) [Compound M00847] |  | 
15 | > 2000 | Cn1nnc2cc(CNC(=O)C3CN(C(=O)OCc4ccc(Cl)cc4)CCN3C(=O)C(N)CCc3ccccc3)ccc21 (stereo not shown) [Compound M00942] |  | 
16 | > 2000 | NCc1ccc(CNC(=O)[C@@H]2CN(C(=O)OCc3ccccc3)CCN2C(=O)[C@H](N)CCc2ccccc2)cc1 [Compound M05086] | ++ (a fold selectivity value of 10 to 100) | oo (a fold selectivity value of 10 to 100)
17 | > 2000 | NCc1ccc(CNC(=O)C2CN(c3ccccc3)CCN2C(=O)C(N)CCc2ccccc2)cc1 (stereo not shown) [Compound M00836] |  | 
18 | > 2000 | NC(CCC(=O)N1CCCC1)C(=O)N1CCN(C(=O)OCc2ccccc2)CC1C(=O)NCc1ccc2cnccc2c1 (stereo not shown) [Compound M05275] |  | 
19 | > 2000 | Cn1nnc2cc(CNC(=O)C3CN(c4ncccn4)CCN3C(=O)C(N)CCc3ccccc3)ccc21 (stereo not shown) [Compound M00891] |  | 
20 | > 2000 | NCc1ccc(CNC(=O)C2CN(S(=O)(=O)CCc3ccccc3)CCN2C(=O)C(N)CCc2ccccc2)cc1 (stereo not shown) [Compound M00842] |  | 
21 | > 2000 | NCc1ccc(CNC(=O)C2CC(O)CCN2C(=O)C(N)CCc2ccccc2)cc1 (stereo not shown) [Compound M05071] |  | 
22 | > 2000 | CC(C(=O)N1CCN(C(=O)C(N)CCc2ccccc2)C(C(=O)NCc2ccc(CN)cc2)C1)c1ccccc1 (stereo not shown) [Compound M00859] |  | 
23 | > 2000 | NCc1ccc(CNC(=O)C2CN(C(=O)c3ccccc3)CCN2C(=O)C(N)CCc2ccccc2)cc1 (stereo not shown) [Compound M00844] |  | 
24 | > 2000 | NC(CCC(=O)N1CCCC1)C(=O)N1CCN(C(=O)OCc2ccccc2)CC1C(=O)NCc1ccc2cnc(O)cc2c1 (stereo not shown) [Compound M05277] | ++ (a fold selectivity value of 10 to 100) | 
25 | > 2000 | C#CCOC(=O)N1CCN(C(=O)C(N)CCc2ccccc2)C(C(=O)NCc2ccc3c(c2)nnn3C)C1 (stereo not shown) [Compound M00880] |  | 
26 | > 2000 | Cc1cc2cc(CNC(=O)C3CN(C(=O)OCc4ccccc4)CCN3C(=O)C(N)CCC(=O)N3CCCC3)ccc2cn1 (stereo not shown) [Compound M05292] |  | 
27 | > 2000 | NCc1ccc(CNC(=O)C2CNCCN2C(=O)C(N)CCc2ccccc2)cc1 (stereo not shown) [Compound M00862] |  | 
28 | > 2000 | Cn1nnc2cc(CNC(=O)C3CN(C(=O)OCc4ccccc4)CCN3C(=O)C(N)c3cc4ccccc4o3)ccc21 (stereo not shown) [Compound M05286] |  | 
29 | > 2000 | Cn1nnc2cc(CNC(=O)[C@@H]3CN(c4ccc5ncccc5c4)CCN3C(=O)[C@H](N)CCc3ccccc3)ccc21 [Compound M00940, (2S)-1-[(2R)-2-amino-4-phenylbutanoyl]-N-[(1-methyl-1H-1,2,3-benzotriazol-5-yl)methyl]-4-(quinolin-6-yl)piperazine-2-carboxamide] |  | 
30 | > 2000 | NC(CCC(=O)N1CCCC1)C(=O)N1CCN(C(=O)OCc2ccccc2)CC1C(=O)NCc1ccnc(O)c1 (stereo not shown) [Compound M05263] |  | 

Row | SMILES | Ki [1] [nM] | Thrombin (human)/FXIIa alpha (human) fold selectivity [2] | FXa (human)/FXIIa alpha (human) fold selectivity [3]
31 | COc1ccc(OC(=O)N2CCN(C(=O)[C@H](N)CCc3ccccc3)[C@H](C(=O)NCc3ccc4c(c3)nnn4C)C2)cc1 [Compound M00932] | > 2000 | ++ (a fold selectivity value of 10 to 100) | oo (a fold selectivity value of 10 to 100)
